Values quoted from earlier work as cited in patent US11331271B2, “Buccal, sublingual and intranasal delivery of fospropofol” (The Johns Hopkins University, priority 2016, dated 2022).
Like-named read-outs stand apart in the source and are kept apart here.

Key:
[1] = IV lipid emulsion, animals; cited from earlier work
[2] = IV lipid emulsion, humans; cited from earlier work
Caco-2 cell monolayers = settings: cited from earlier work
patients = settings: anesthetic induction doses; cited from earlier work

CC(C)c1cccc(C(C)C)c1O [propofol, 2,6-diisopropylphenol]
extraction by the liver [1]: 80% | extraction by the liver [2]: 80% | permeability (Caco-2 cell monolayers): highly permeable | patients with respiratory consequences (reduction in tidal volume, apnea) (patients): up to 83%
